# From paper PMC5796027, “Thiopurine Drugs Repositioned as Tyrosinase Inhibitors” (International Journal of Molecular Sciences, 2017)
# Entries after “also recorded” stand apart in the source; their conditions may differ.
# Columns and labels:
# mushroom tyrosinase [1] = target: T1, mushroom tyrosinase (Agaricus bisporus, UniProt C7FF04); assay: Mushroom tyrosinase enzyme inhibition assay (dopachrome absorbance at 475 nm); format: biochemical; details: for inhibition of mushroom tyrosinase (in words): enzyme assay with 0.01% Triton X-100; for LE, ligand efficiency: −1.37 × (Log10Ki)/HA, HA = number of heavy atoms
# Procedure: (§1) Enzyme activity and kinetics experiments with inhibitors—All of the reagents used in this study were purchased from ChemBridge (San Diego, CA, USA), Sigma-Aldrich (St. Louis, MO, USA), or Tokyo Chemical Industry (Tokyo, Japan). The reaction solution for the enzyme assay was prepared with 200 nM mushroom tyrosinase and inhibitors in phosphate-buffered saline (PBS), containing 5% dimethyl sulphoxide and 0.01% (w/v) Triton X-100. After incubating the mixture at 30 °C for 10 min, 500 μM L-tyrosine was added as the substrate. […] The IC50 was evaluated by analysing different concentrations of each inhibitor. The inhibitory constants (Ki) were converted from the IC50 values using the Km obtained from kinetics experiments and substrate concentration based on the Cheng–Prusoff equation [60]. A series of substrates at concentrations of 0.25, 0.33, 0.4, 0.5, 0.67, and 1 mM were used to obtain the respective velocities (V) for enzyme inhibitory kinetics. The concentrations of each inhibitor were varied and comprised the range that included the IC50 value. Four models (competitive, uncompetitive, non-competitive, and mixed) that were derived from the Michaelis-Menten equation were used to fit the kinetic parameters, maximum velocity (Vmax), Michaelis constant (Km), and the dissociation constants between the substrate-free enzyme and inhibitor (Kic) and the substrate-bound enzyme and inhibitor (Kiu). The data from all the concentrations of the substrate and inhibitor were simultaneously fitted nonlinearly by minimising the χ^2 value, defined as the sum of the squared deviations between experimental and fitted values for each model. The appropriate model was selected based on the F-test with χ^2 values from the four models, coupled with the extraction of the related parameters. All of the fittings and statistical analyses in this study were computed by using MATLAB® (MathWorks, Natick, MA, USA).
# Target sequence in this assay (C7FF04 1-392): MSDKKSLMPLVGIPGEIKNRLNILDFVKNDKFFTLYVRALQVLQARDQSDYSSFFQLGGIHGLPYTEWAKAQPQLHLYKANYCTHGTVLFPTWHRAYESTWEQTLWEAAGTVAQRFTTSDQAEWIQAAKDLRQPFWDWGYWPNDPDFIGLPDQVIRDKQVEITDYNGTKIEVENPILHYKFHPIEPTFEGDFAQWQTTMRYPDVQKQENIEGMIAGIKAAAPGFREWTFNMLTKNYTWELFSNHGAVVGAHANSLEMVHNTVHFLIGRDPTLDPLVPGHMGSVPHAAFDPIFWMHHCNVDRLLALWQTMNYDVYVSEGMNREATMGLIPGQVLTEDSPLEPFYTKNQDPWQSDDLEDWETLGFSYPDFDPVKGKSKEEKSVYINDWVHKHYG
# [2] = set-up: method as in PMID 22587354, PMID 18551414, PMID 15667143; details: extracted from the ZINC database ref 33,34,35; cited from earlier work
# [3] = system: B16F10 murine melanoma cells; assay: Melanin content assay in B16F10 cells; format: cell-based; details: 10, 20 and 50 μM tested, 48 h
# Procedure: (§2) Cell-based activity assays with inhibitors—The melanin content and MTT conversion were measured in B16F10 murine melanoma cells that were purchased from the Korean Cell Line Bank (Seoul, Korea). When the density of B16F10 cells reached 1 × 10^5 cells, the test inhibitors (10, 20, and 50 μM) and 3-isobutyl-1-methylxanthine (IBMX, 100 μM) were added, and the cells were incubated for 48 h. The amount of melanin released into the extracellular area was quantified by measuring the absorbance at 405 nm, and was subsequently expressed as a percentage relative to the untreated control. The change in the reduction of the MTT dye into formazan in the cell was quantitatively interpreted as the cellular toxicity induced by the inhibitor. The inhibition of tyrosinase was also estimated using the B16F10 cell lysates, as described previously [28]. In brief, the cells were lysed in PBS supplemented with 1% (w/v) Triton X-100, centrifuged at 14,000 g for 30 min, and then the supernatants were dialysed to remove Triton X-100. After adding 500 μM L-DOPA and the inhibitors (10, 20, and 50 μM) to the prepared lysates, the change in absorbance over time at 475 nm was measured. The decrease in absorbance was calculated relative to the absorbance of the untreated controls.
# melanin contents = system: melanin contents; set-up: method as in PMID 23123645, PMID 23411395, PMID 22901670; details: higher concentrations (>100 μM) ref 44,45,46; cited from earlier work
# mushroom tyrosinase [4] = target: T1, mushroom tyrosinase; assay: Enzyme inhibitory kinetics with nonlinear fitting of Michaelis-Menten models; format: biochemical; details: for Mechanism of inhibition: model chosen by χ2 and F-test among competitive, uncompetitive, non-competitive, mixed; for Ki: nonlinear data fitting, competitive model, read-out: kinetically fitted Ki
# Procedure: as §1
# Target sequence in this assay (C7FF04 1-392): as above
# mushroom tyrosinase [5] = target: T1, mushroom tyrosinase; assay: Differential scanning fluorimetry (DSF); format: binding; details: 0.5 μM protein, 200 μM inhibitor, control without inhibitor 51.8 °C
# Procedure: DSF—The stability of mushroom tyrosinase in the presence and absence of inhibitors was assessed using DSF using a […] (RT-PCR) CFX96 system (BioRad, Hercules, CA, USA). […] The Tm value, which is the mid-point melting temperature, was calculated from a nonlinear fit of the temperature-dependent fluorescent intensity I(T), expressed as the Boltzmann equation: I(T)=LL+UL−LL/1+exp(Tm−T/a), where UL and LL are related to the baseline and top of the curves, respectively, and a is the steepness of the slope. Only data in the range of 35–65 °C were used for the fitting.
# Target sequence in this assay (C7FF04 1-392 limits assumed): as the sequence (C7FF04 1-392) above
# mammalian tyrosinase = target: T2, mammalian tyrosinase (Mus musculus, UniProt P11344); assay: Tyrosinase inhibition in B16F10 cell lysates (L-DOPA substrate); format: biochemical, murine; details: 10, 20, 50 μM inhibitor, 500 μM L-DOPA
# T2 construct: we performed an enzymatic assay with melanoma B16F10 cell lysates; endogenous in cells; host or cells: B16F10 murine melanoma cells (Korean Cell Line Bank), Triton X-100 lysate, dialysed supernatant
# T2 sequence (P11344 19-533): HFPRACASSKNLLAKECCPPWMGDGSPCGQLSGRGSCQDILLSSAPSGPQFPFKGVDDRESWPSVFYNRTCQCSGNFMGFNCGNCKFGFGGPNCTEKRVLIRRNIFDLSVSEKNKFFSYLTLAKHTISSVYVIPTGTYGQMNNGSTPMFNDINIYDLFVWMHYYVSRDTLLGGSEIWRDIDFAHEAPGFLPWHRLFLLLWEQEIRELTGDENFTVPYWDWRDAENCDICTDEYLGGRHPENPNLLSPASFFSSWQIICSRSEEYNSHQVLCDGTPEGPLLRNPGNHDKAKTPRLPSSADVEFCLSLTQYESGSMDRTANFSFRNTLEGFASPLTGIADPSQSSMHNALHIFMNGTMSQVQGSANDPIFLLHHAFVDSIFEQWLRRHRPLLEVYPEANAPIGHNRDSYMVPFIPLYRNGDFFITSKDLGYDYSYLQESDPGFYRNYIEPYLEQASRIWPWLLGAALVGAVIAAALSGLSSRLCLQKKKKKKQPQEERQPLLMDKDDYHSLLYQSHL
# Procedure: as §2
# human hepatocytes = details: up to several tens of μM ref 43; cited from earlier work
# tyrosinase = details: cited from earlier work; for reported inhibition of tyrosinase through direct binding: literature survey ref 36,37
smiles,measurement,setting,value
"NC(CC(=O)O)C(=O)O (racemic) [D,L-aspartic acid]",inhibition of mushroom tyrosinase (in words),mushroom tyrosinase [1],only thioguanine exerted inhibitory action
"Cn1cnc([N+](=O)[O-])c1Sc1ncnc2nc[nH]c12 [Azathioprine, azathioprine]",Ki,mushroom tyrosinase [1],> 1000 µM
same,inhibition of mushroom tyrosinase (in words),mushroom tyrosinase [1],"but not azathioprine, exerted an inhibitory activity; also recorded: poor inhibitor"
same,LogP,[2],1.15
"Nc1nc2nc[nH]c2c(=O)[nH]1 [Guanine, guanine]",Ki,mushroom tyrosinase [1],> 1000 µM
same,inhibition of mushroom tyrosinase (in words),mushroom tyrosinase [1],only thioinosine inhibited tyrosinase
same,LogP,[2],−0.77
"O=c1[nH]cnc2nc[nH]c12 [Hypoxanthine, hypoxanthine]",Ki,mushroom tyrosinase [1],> 1000 µM
same,inhibition of mushroom tyrosinase (in words),mushroom tyrosinase [1],only thioinosine inhibited tyrosinase
same,LogP,[2],−0.35
"O=c1cc(CO)occ1O [Kojic acid, kojic acid]",reduction of melanin content (in words),[3],marginal
same,LogP,[2],−0.16
same,decrease of melanin contents,melanin contents,meaningful decreases
"Sc1ncnc2nc[nH]c12 [Mercaptopurine, mercaptopurine]",Ki,mushroom tyrosinase [1]; read-out: Ki,16 µM
same,"LE, ligand efficiency",mushroom tyrosinase [1],0.61
same,Mechanism of inhibition,mushroom tyrosinase [4],Competitive
same,Mechanism of inhibition,mushroom tyrosinase [4]; listed as mercaptopurine,competitive inhibitors
same,Ki,mushroom tyrosinase [4],29 µM
same,Tm of tyrosinase in complex with inhibitor,mushroom tyrosinase [5],49.0 ± 0.2 °C
same,Tm of tyrosinase in complex with inhibitor,mushroom tyrosinase [5]; listed as mercaptopurine,49.0 °C
same,inhibition of tyrosinase in B16F10 cell lysates (in words),mammalian tyrosinase,highest inhibition
same,inhibition of tyrosinase in B16F10 cell lysates (in words),mammalian tyrosinase; listed as mercaptopurine,inhibited melanin syntheses in a concentration-dependent manner
same,reduction of melanin content (in words),[3],less effective
same,LogP,[2],1.00
same,cytotoxicity in human hepatocytes,human hepatocytes,less cytotoxic up to several tens of μM
N[C@@H](CSCC(=O)O)C(=O)O [S-carboxymethyl-L-cysteine],inhibition of mushroom tyrosinase (in words),mushroom tyrosinase [1],only thioguanine exerted inhibitory action
"Nc1nc2nc[nH]c2c(=S)[nH]1 [Thioguanine, thioguanine]",inhibition of mushroom tyrosinase (in words),mushroom tyrosinase [1],only thioguanine exerted inhibitory action
same,Ki,mushroom tyrosinase [1]; read-out: Ki,52 µM
same,Mechanism of inhibition,mushroom tyrosinase [4],Competitive
same,Mechanism of inhibition,mushroom tyrosinase [4]; listed as thioguanine,competitive inhibitors
same,Ki,mushroom tyrosinase [4],40 µM
same,Tm of tyrosinase in complex with inhibitor,mushroom tyrosinase [5],49.8 ± 0.2 °C
same,Tm of tyrosinase in complex with inhibitor,mushroom tyrosinase [5]; listed as thioguanine,49.8 °C
same,inhibition of tyrosinase in B16F10 cell lysates (in words),mammalian tyrosinase,inhibited melanin syntheses in a concentration-dependent manner
same,reduction of melanin content (in words),[3],markedly reduced the melanin content at 20 and 50 μM
same,LogP,[2],0.60
"OC[C@H]1O[C@@H](n2cnc3c(S)ncnc32)[C@H](O)[C@@H]1O [Thioinosine, thioinosine]",Ki,mushroom tyrosinase [1]; read-out: Ki,8 µM
same,"LE, ligand efficiency",mushroom tyrosinase [1],0.34
same,Mechanism of inhibition,mushroom tyrosinase [4],Competitive
same,Mechanism of inhibition,mushroom tyrosinase [4]; listed as thioinosine,competitive inhibitors
same,Ki,mushroom tyrosinase [4],14 µM
same,Tm of tyrosinase in complex with inhibitor,mushroom tyrosinase [5],51.0 ± 0.2 °C
same,Tm of tyrosinase in complex with inhibitor,mushroom tyrosinase [5]; listed as thioinosine,51.0 °C
same,inhibition of tyrosinase in B16F10 cell lysates (in words),mammalian tyrosinase,inhibited melanin syntheses in a concentration-dependent manner
same,reduction of melanin content (in words),[3],markedly reduced the melanin content at 20 and 50 μM
same,LogP,[2],−0.90
"Nn1c(S)nnc1-c1ccncc1 [ZINC509439, 4-amino-5-(4-pyridyl)-4H-1,2,4-triazole-3-thiol]",Ki,"tyrosinase; BindingDB entry ref 48, read-out: reported Ki",1 µM
"O=Cc1ccc(O[C@@H]2O[C@H](CO)[C@@H](O)[C@@H](O)[C@H]2O)cc1 [ZINC5234422, 4-(β-D-allopyranosyloxy)benzaldehyde]",IC50,"tyrosinase; BindingDB entry ref 48, read-out: half-maximal inhibitory concentration (IC50)",94 µM
Nc1ccc(C(=O)NCC(=O)O)cc1 [aminohippuric acid],reported inhibition of tyrosinase through direct binding,tyrosinase,has been reported
O=C(O)c1cc(-c2ccc(F)cc2F)ccc1O [diflunisal],reported inhibition of tyrosinase through direct binding,tyrosinase,has been reported
O=C(O)c1cccnc1Nc1cccc(C(F)(F)F)c1 [nifumic acid],inhibition of mushroom tyrosinase (in words),mushroom tyrosinase [1],only thioguanine exerted inhibitory action
CCCN(CCC)S(=O)(=O)c1ccc(C(=O)O)cc1 [probenecid],inhibition of mushroom tyrosinase (in words),mushroom tyrosinase [1],only thioguanine exerted inhibitory action
COc1ccc(/C=C/C(=O)Nc2ccccc2C(=O)O)cc1OC [tranilast],inhibition of mushroom tyrosinase (in words),mushroom tyrosinase [1],only thioguanine exerted inhibitory action
